Where two headings read alike, the source gives them in different places.
How the values were obtained:
Ebolavirus [1] = details: cited from earlier work
Huh7 cells = experiment: Cytotoxicity, CellTiter-Glo Luminescent Cell Viability Assay; details: Table 2, 24 h incubation
[2] = test system: EBOV-GFP (recombinant Ebolavirus encoding a GFP reporter gene); experiment: microbe, parasite or virus in culture; type: cell-based
Ebolavirus [3] = details: human, in vivo; cited from earlier work
[4] = Cytotoxicity, CellTiter-Glo Luminescent Cell Viability Assay; details: human, Huh7 cells
[5] = in humans, metabolite formed by CYP2C8; cited from earlier work

Row | SMILES | anti-Ebolavirus activity (previous reports) (Ebolavirus [1]) | CC50 (Huh7 cells) [µM] | CC50 at 24 h [4] [µM] | Selectivity index [2] | IC50 ([2]; Orthoebolavirus, Huh-7) [nM] | IC50 ([2]; Orthoebolavirus, Huh-7, 24 h) [nM] | other results
1 | CCN(CC)Cc1cc(Nc2ccnc3cc(Cl)ccc23)ccc1O [Amodiaquine] | potent anti-Ebolavirus activity | 79 |  |  |  |  | IC50 ([2]; read-out: IC50): 2130 nM; mortality rate (Ebolavirus [3]): 50%
2 | CCN(CC)Cc1cc(Nc2ccnc3cc(I)ccc23)ccc1O [Compound 18, 4-(7-iodoquinolin-4-ylamino)-2-diethylaminomethylphenol] |  | > 100 | > 100 | >156 | 640 | 640 ± 50 | fold potency relative to amodiaquine [2]: 3.3 fold
3 | CCCCN(CCCC)Cc1cc(Nc2ccnc3cc(Cl)ccc23)ccc1O [Compound 28, 4-(7-chloroquinolin-4-ylamino)-2-dibutylaminomethylphenol] |  | > 100 | > 100 | >139 | 720 | 720 ± 80 | 
4 | Oc1ccc(Nc2ccnc3cc(I)ccc23)cc1CN1CCCCC1 [Compound 43, 4-(7-iodoquinolin-4-ylamino)-2-(1-piperidinylmethyl)phenol] |  |  | > 100 | >270 | 370 | 370 ± 70 | 
5 | Oc1ccc(Nc2ccnc3cc(I)ccc23)cc1CN1CCOCC1 [Compound 44, 4-(7-iodoquinolin-4-ylamino)-2-(4-morpholinylmethyl)phenol] |  |  | > 100 | >63 | 1590 | 1590 ± 120 | 
6 | Oc1ccc(Nc2ccnc3cc(I)ccc23)cc1CN1CCSCC1 [Compound 45, 4-(7-iodoquinolin-4-ylamino)-2-(4-thiamorpholinylmethyl)phenol] |  |  | > 100 | >51 | 1950 | 1950 ± 220 | 
7 | CCNCc1cc(Nc2ccnc3cc(Cl)ccc23)ccc1O [desethyl-amodiaquine] | potent anti-Ebolavirus activity |  |  |  |  |  | half-life [5]: 9 to 18 days
8 | COc1ccc2nc3cc(Cl)ccc3c(Nc3cc(CN4CCCC4)c(O)c(CN4CCCC4)c3)c2n1 [pyronaridine] | anti-Ebolavirus activities |  |  |  |  |  | 
9 | CCN(CC)CCCC(C)Nc1c2ccc(Cl)cc2nc2ccc(OC)cc12 (stereo not shown) [quinacrine] | anti-Ebolavirus activities |  |  |  |  |  | 

— patent US11571416B2, “Amodiaquine analogs and methods of uses thereof” (priority 2017, dated 2023)
